These results are taken from PMC3608651, “A Broad Profile of Co-Dominant Epitopes Shapes the Peripheral Mycobacterium tuberculosis Specific CD8+ T-Cell Immune Response in South African Patients with Active Tuberculosis” (PLoS ONE, 2013).

Read-outs that look alike come from different tables or passages of the source. Marks after values point to notes of the source that are not given here.

The target in experiment [1] is T1, HLA-A*30:02 (Homo sapiens, UniProt P04439, D101N/D140H/D185E/E176R/F33S/G80R/H175R/K168Q/Q94H/R138E/R41S/V100E). Particulars: percent relative the binding of a positive control peptide, cited from earlier work.
The target in experiment [2] is T2, HLA-A*30:01 (Homo sapiens, UniProt P04439, D140H/D185E/E176W/F33S/G80R/H175R/K168Q/R138E/R41S). Particulars: percent relative the binding of a positive control peptide; wild-type epitopes marked **; cited from earlier work.
For experiment [3], the target named is T1, HLA-A*30:02. The conditions noted are these: cited from earlier work.
The target of experiment [4] is T1, HLA-A*30:02. Particulars: cited from earlier work. This is another data set of the same source.
The target in experiment [5] is T2, HLA-A*30:01. Particulars: wild-type epitopes marked **; cited from earlier work.
Experiment [6] has as its target T2, HLA-A*30:01. Particulars: wild-type epitopes marked **; cited from earlier work. The source holds these as a separate data set.
Experiment [7] addresses T3, HLA-B*58:01 (Homo sapiens, UniProt P01889, A329T/C349S/D201E/D98Y/E176V/E187L/E204Q/E69T/G107R/I218V/I90N/K202T/L105A/L119I/N104I/N87E/Q89R/Q94S/R106L/R155S/R180L/R86G/S101N/S121R/S35A/S48A/T118I/V127L/V306I/V36M/Y140S/Y91M). Format: binding. Particulars: time points 0-8 h.
The target in experiment [8] is T4, HLA-B*07:02 (Homo sapiens, UniProt P01889). The experiment can be described thus: affinity assay (ED50). Format: binding. The conditions noted are these: peptide titrated 10−4 to 10−9 M.
The target in the next experiment is HLA-A*68:01 (Homo sapiens, UniProt P04439, A269V/D185E/E176V/E277Q/E87N/F33Y/G231S/I121M/I166T/I218V/L180W/L300P/L318F/N151K/P208A/P217A/Q86R/R169H/T345S). Format: binding. The conditions noted are these: percent relative the binding of positive control peptide […]; duplicated experiments; positive binder >40%.
Experiment [9] has as its target T3, HLA-B*58:01. Format: binding. The conditions noted are these: percent relative the binding of positive control peptide […]; duplicated experiments; positive binder >40%.
Experiment [10] deals with T2, HLA-A*30:01. Description: affinity assay (ED50). Particulars: peptide titrated 10−4 to 10−9 M. Format: binding.
Experiment [11] deals with T5, HLA-A*24:02 (Homo sapiens, UniProt P04439, D101N/D140Y/D185E/E176V/E190D/F33S/G103R/G107R/I119L/I121M/I306V/K335N/L105A/L180Q/L300P/N151K/N90K/Q86E/Q94H/R106L/R138H/R89G/T104I/T345S/V100E/W191G/Y123F). Type of experiment: binding. The conditions noted are these: percent relative the binding of positive control peptide […]; duplicated experiments; positive binder >40%.

In experiment [12] the target is T1, HLA-A*30:02. Format: binding.
In experiment [13] the target is T5, HLA-A*24:02. Format: binding. The conditions noted are these: time points 0-8 h.
The target in experiment [14] is T6, HLA-A*02:01 (Homo sapiens, UniProt P04439, D140Y/D185E/D98H/E176V/E277Q/G131W/G231S/I119V/I121R/I166T/I218V/L300P/L318F/N151K/N90K/P208A/P217A/Q86G/Q94H/R138H/R169H/T345S). Type of experiment: binding. Particulars: percent relative the binding of positive control peptide […]; plate-bound monomer 0.5 µg/ml; duplicated experiments; positive binder >40%.
Experiment [15] concerns the target T2, HLA-A*30:01. The experiment can be described thus: off-rate assay (t1/2). Type of experiment: binding. Particulars: time points 0-8 h.
Experiment [16] concerns the target T3, HLA-B*58:01. Format: binding.
The target in experiment [17] is T1, HLA-A*30:02. Format: binding. Particulars: percent relative the binding of positive control peptide […]; duplicated experiments; positive binder >40%.
Experiment [18] has as its target T4, HLA-B*07:02. The experiment can be described thus: off-rate assay (t1/2). Particulars: time points 0-8 h. Format: binding.
For experiment [19], the target named is T1, HLA-A*30:02. Type of experiment: binding. Particulars: time points 0-8 h.
Experiment [20] addresses T6, HLA-A*02:01. Type of experiment: binding. The conditions noted are these: […]; peptide quantity for 50% binding saturation.
For experiment [21], the target named is T6, HLA-A*02:01. Format: binding. The conditions noted are these: time points 0-8 h; time when 50% of peptide has dissociated.
Experiment [22] has as its target T7, HLA-C*07:01 (Homo sapiens, UniProt P10321, K90N/S123Y). The experiment can be described thus: affinity assay (ED50). Type of experiment: binding.
The target of experiment [23] is T7, HLA-C*07:01. Type of experiment: binding. Particulars: percent relative the binding of positive control peptide […]; duplicated experiments; positive binder >40%.
The target in experiment [24] is T5, HLA-A*24:02. Type of experiment: binding.
For experiment [25], the target named is T2, HLA-A*30:01. Format: binding. Particulars: percent relative the binding of positive control peptide […]; duplicated experiments; positive binder >40%.
For experiment [26], the target named is T4, HLA-B*07:02. Format: binding. The conditions noted are these: percent relative the binding of positive control peptide […]; duplicated experiments; positive binder >40%.
The target of experiment [27] is T7, HLA-C*07:01. The experiment can be described thus: off-rate assay (t1/2). Format: binding. Particulars: time points 0-8 h.
The target of experiment [28] is T4, HLA-B*07:02. Particulars: cited from earlier work.
Experiment [29] concerns the target T4, HLA-B*07:02. The conditions noted are these: percent relative the binding of a positive control peptide; […]; cited from earlier work.
The target of experiment [30] is T4, HLA-B*07:02. The conditions noted are these: cited from earlier work. This is another data set of the same source.

For the substance LVRAYHAMS [Rv0288_65–73wt], the “Bind A*30:02” value at HLA-A*30:02 [1] (wild-type epitopes marked **) was 75** percent. Besides, at HLA-A*30:01 [2], the “Bind A*30:01” value is recorded as 158** percent. Further, the “Aff A*30:02 (ED50)” value on HLA-A*30:02 [3] (wild-type epitopes marked **) is 2 µM. In addition, on HLA-A*30:02 [4] (wild-type epitopes marked **), the “O-rate A*30:02 (t1/2)” value is 1.0 h. Also, the “O-rate A*30:01 (t1/2)” value at HLA-A*30:01 [5] is reported as 1.8 h. In addition, the “Aff A*30:01 (ED50)” value at HLA-A*30:01 [6] was 2 µM.

Turning to VANNT RLWV, the “O-rate B*58:01 (t1/2)” value on HLA-B*58:01 [7] is given as 1.9 h. In addition, at HLA-B*07:02 [8], the “Aff B*07:02 (ED50)” value was 600 nM. For the same substance, the “Bind A*68:01” value at HLA-A*68:01 was 3%. Moreover, on HLA-B*58:01 [9], the “Bind B*58:01” value worked out at 49%. Further, the “Aff A*30:01 (ED50)” value at HLA-A*30:01 [10] worked out at 3E -08 M. On HLA-A*24:02 [11], the “Bind A*24:02” value was 58%. For the same substance, the “Aff A*30:02 (ED50)” value on HLA-A*30:02 [12] came to 100 nM. Further, at HLA-A*24:02 [13], the “O-rate A*24:02 (t1/2)” value amounted to 18 min. The “Bind A*02:01” value on HLA-A*02:01 [14] was 77%. On HLA-A*30:01 [15], the “O-rate A*30:01 (t1/2)” value is 30 min. The “Aff B*58:01 (ED50)” value on HLA-B*58:01 [16] worked out at 0.01 µM. In addition, the “Bind A*30:02” value on HLA-A*30:02 [17] turned out to be 171%. In addition, the “O-rate B*07:02 (t1/2)” value on HLA-B*07:02 [18] was determined as 42 min. Also, the “O-rate A*30:02 (t1/2)” value at HLA-A*30:02 [19] is 48 min. For the same substance, at HLA-A*02:01 [20], the “Aff A*02:01 (ED50)” value stood at 5E -07 M. The “O-rate A*02:01 (t1/2)” value at HLA-A*02:01 [21] amounted to 2.5 h. Further, at HLA-C*07:01 [22], the “Aff C*07:01 (ED50)” value is 3E -07 M. Moreover, at HLA-C*07:01 [23], the “Bind C*07:01” value amounted to 69%. The “Aff A*24:02 (ED50)” value on HLA-A*24:02 [24] stood at 4 µM. Further, on HLA-A*30:01 [25], the “Bind A*30:01” value was 141%. The “Bind B*07:02” value at HLA-B*07:02 [26] is given as 61%. Further, the “O-rate C*07:01 (t1/2)” value at HLA-C*07:01 [27] amounted to 36 min.

Take RAYHAMSST [Rv0288_67–75wt]: the “O-rate B*58:01 (t1/2)” value on HLA-B*58:01 [7] is 0.2 h. The “Bind A*30:02” value at HLA-A*30:02 [1] ([…]) was 73** percent. The “Bind B*58:01” value at HLA-B*58:01 [9] came to 39%. Also, on HLA-B*07:02 [28], the “Aff B*07:02 (ED50)” value was 20 µM. Moreover, the “Bind B*07:02” value on HLA-B*07:02 [29] is listed as 39* percent. Also, the “Aff A*30:02 (ED50)” value on HLA-A*30:02 [3] was 1 µM. On HLA-B*58:01 [16], the “Aff B*58:01 (ED50)” value was determined as 10 µM. Besides, the “O-rate A*30:02 (t1/2)” value at HLA-A*30:02 [4] is on record as 1.2 h. Moreover, the “Aff C*07:01 (ED50)” value on HLA-C*07:01 [22] stood at 1e-05 M. Further, the “Bind C*07:01” value at HLA-C*07:01 [23] was determined as 35%. At HLA-C*07:01 [27], the “O-rate C*07:01 (t1/2)” value amounted to 12 min. The “O-rate B*07:02 (t1/2)” value on HLA-B*07:02 [30] is 48 min.
